Measurements: patent publication US7521478B2, “Total synthesis of myriaporones” (Pharma Mar, S.A.U., priority 2002, dated 2009)

Experiments:
Assay type in all cases: cell-based
DU-145 = assay: Inhibition of cell growth by colorimetric SRB assay, DU-145; details: Homo sapiens, DU-145, 48 hours exposure; for CC50: cell killing, read-out: LC50 (the source's name); for IC (total growth inhibition): read-out: TGI
Method in brief: (§1)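 Absorbance of solubilized bound SRB (490 nm) quantified cell growth and viability after cells were exposed to compound for 48 h. Seeding was 5×10^3 cells per well in RPMI 1640/10% FBS, with 18 h attachment beforehand. GI, TGI and LC were calculated from means of triplicate wells.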

LNCaP = assay: Inhibition of cell growth by colorimetric SRB assay, LN-caP; details: Homo sapiens, LN-caP, 48 hours exposure; for CC50: cell killing, read-out: LC50 (the source's name); for IC (total growth inhibition): read-out: TGI
From the text: (§2) The finality of these assays is to interrupt the growth of a “in vitro” tumor cell culture by means a continued exhibition of the cells to the sample to be testing.
(§3) Inhibition of Cell Growth by Colorimetric Assay.
(§4) A colorimetric type of assay, using sulforhodamine B (SRB) reaction has been adapted for a quantitative measurement of cell growth and viability (following the technique described by P. A. Skehan, et al., J. Natl. CancerInst. 1990, 82, 1107-1112).
(§5) This form of assay employs 96 well cell culture microplates of 9 mm diameter (T. Mosmann et al., J. of Immuological Methods 1983, 65, 55-63; G. T. Faircloth et al., J. of Tissue and Culture Methods 1988, 11, 201-205). Most of the cell lines are obtained from American Type Culture Collection (ATCC) derived from different human cancer types.
(§6) Cells are maintained in RPMI 1640 10% FBS, supplemented with 0.1 g/L penicillin and 0.1 g/L streptomycin sulfate and then incubated at 37° C., 5% CO2 and 98% humidity. For the experiments, cells were harvested from subconfluent cultures using trypsin and resuspended in fresh medium before plating.
(§7) Cells are seeded in 96 well microtiter plates, at 5×10^3 cells per well in aliquots of 195 μL medium, and they are allowed to attach to the plate surface by growing in drug free medium for 18 hours. Afterward, samples are added in aliquots of 5 μL in a ranging from 10 to 10^−8 μg/mL, dissolved in DMSO/EtOH/PBS (0.5:0.5:99). After 48 hours exposure, the antitumor effect are measured by the SRB methodology: cells are fixed by adding 50 μL of cold 50% (wt/vol) trichloroacetic acid (TCA) and incubated for 60 minutes at 4° C. Plates are washed with deionizer water and dried. One hundred μl of SRB solution (0.4% wt/vol in 1% acetic acid) is added to each microliter well and incubated for 10 minutes at room temperature. Unbound SRB is removed by washing with 1% acetic acid. Plates are air dried and bound stain is solubilized with Tris buffer. Optical densities are read on a automated spectrophotometric plate reader at a single wavelength of 490 nm.
(§8) The values for mean +/−SD of data from triplicate wells are calculated. Some parameters for cellular responses can be calculated: GI=growth inhibition, TGI=total growth inhibition (cytostatic effect) and LC=cell killing (cytotoxic effect).

IGROV = assay: Inhibition of cell growth by colorimetric SRB assay, IGROV; details: Homo sapiens, 48 hours exposure; for CC50: cell killing, read-out: LC50 (the source's name); for IC (total growth inhibition): read-out: TGI
Method in brief: as §1

IGROV-ET = assay: Inhibition of cell growth by colorimetric SRB assay, IGROV-ET; details: Homo sapiens, IGROV-ET, 48 hours exposure; for CC50: cell killing, read-out: LC50 (the source's name); for IC (total growth inhibition): read-out: TGI
Method in brief: as §1

SK-BR-3 = assay: Inhibition of cell growth by colorimetric SRB assay, SK-BR-3; details: SK-BR-3, 48 hours exposure; for GI50 / CC50: Homo sapiens; for CC50: cell killing, read-out: LC50 (the source's name); for TGI: total growth inhibition
From the text: as §2, §3, §4, §5, §6, §7, §8

SK-MEL-28 = assay: Inhibition of cell growth by colorimetric SRB assay, MEL-28; details: Homo sapiens, SK-MEL-28, MEL-28, 48 hours exposure; for CC50: cell killing, read-out: LC50 (the source's name); for IC (total growth inhibition): read-out: TGI
Method in brief: as §1

A-549 = assay: Inhibition of cell growth by colorimetric SRB assay, A-549; details: Homo sapiens, A549, A-549, 48 hours exposure; for CC50: cell killing, read-out: LC50 (the source's name); for IC (total growth inhibition): read-out: TGI
Method in brief: as §1

K-562 = assay: Inhibition of cell growth by colorimetric SRB assay, K-562; details: Homo sapiens, K562, K-562, 48 hours exposure; for CC50: cell killing, read-out: LC50 (the source's name); for IC (total growth inhibition): read-out: TGI
From the text: as §2, §3, §4, §5, §6, §7, §8

PANC-1 = assay: Inhibition of cell growth by colorimetric SRB assay, PANC-1; details: Homo sapiens, PANC-1, 48 hours exposure; for CC50: cell killing, read-out: LC50 (the source's name); for IC (total growth inhibition): read-out: TGI
Method in brief: as §1

HT-29 = assay: Inhibition of cell growth by colorimetric SRB assay, HT-29; details: Homo sapiens, HT-29, 48 hours exposure; for CC50: cell killing, read-out: LC50 (the source's name); for IC (total growth inhibition): read-out: TGI
Method in brief: as §1

LoVo = assay: Inhibition of cell growth by colorimetric SRB assay, LOVO; details: Homo sapiens, LOVO, 48 hours exposure; for LC50: cell killing, read-out: LC50; for IC (total growth inhibition): read-out: TGI
Method in brief: as §1

LoVo-Dox = assay: Inhibition of cell growth by colorimetric SRB assay, LOVO-DOX; details: Homo sapiens, LOVO-DOX, 48 hours exposure; for LC50 (concentration for 50% cell killing): read-out: LC50; for IC (total growth inhibition): read-out: TGI
Method in brief: as §1

HeLa = assay: Inhibition of cell growth by colorimetric SRB assay, HELA; details: Homo sapiens, HELA, 48 hours exposure; for CC50: cell killing, read-out: LC50 (the source's name); for IC (total growth inhibition): read-out: TGI
Method in brief: as §1

HeLa-APL = assay: Inhibition of cell growth by colorimetric SRB assay, HELA-APL; details: Homo sapiens; for CC50: HELA-APL, 48 hours exposure, cell killing, read-out: LC50 (the source's name)
Method in brief: as §1

C/C=C\[C@H](C)[C@H]1OC1(C)[C@@H](O[Si](C)(C)C(C)(C)C)[C@@H](CO[Si](C)(C)C(C)(C)C)C(=O)[C@H](CO[Si](C)(C)C(C)(C)C)[C@H](CC(=O)CC)O[Si](C)(C)C(C)(C)C (stereo partly drawn) [Compound 19a]
12.1 µM: GI50 (DU-145) | CC50 (DU-145) | IC (total growth inhibition) (DU-145) | GI50 (LNCaP) | CC50 (LNCaP) | IC (total growth inhibition) (LNCaP) | GI50 (IGROV) | CC50 (IGROV) | IC (total growth inhibition) (IGROV) | GI50 (IGROV-ET) | CC50 (IGROV-ET) | IC (total growth inhibition) (IGROV-ET) | GI50 (SK-BR-3) | CC50 (SK-BR-3) | GI50 (SK-MEL-28) | CC50 (SK-MEL-28) | IC (total growth inhibition) (SK-MEL-28) | GI50 (A-549) | CC50 (A-549) | IC (total growth inhibition) (A-549) | GI50 (K-562) | CC50 (K-562) | IC (total growth inhibition) (K-562) | GI50 (PANC-1) | CC50 (PANC-1) | IC (total growth inhibition) (PANC-1) | GI50 (HT-29) | CC50 (HT-29) | IC (total growth inhibition) (HT-29) | GI50 (LoVo) | LC50 (LoVo) | IC (total growth inhibition) (LoVo) | GI50 (LoVo-Dox) | LC50 (concentration for 50% cell killing) (LoVo-Dox) | IC (total growth inhibition) (LoVo-Dox) | GI50 (HeLa) | CC50 (HeLa) | IC (total growth inhibition) (HeLa) | CC50 (HeLa-APL)
1.21E−05 Molar: TGI (SK-BR-3)

C/C=C\[C@H](C)[C@H]1OC1(C)[C@@H](O[Si](C)(C)C(C)(C)C)[C@@H](CO)C(=O)[C@H](CO)[C@@H](O)CC(=O)CC (stereo partly drawn) [20a + 20c]
≥ 20.5 µM: CC50 (DU-145) | CC50 (LNCaP) | CC50 (IGROV) | CC50 (IGROV-ET) | CC50 (SK-BR-3) | CC50 (SK-MEL-28) | GI50 (A-549) | CC50 (A-549) | CC50 (K-562) | CC50 (PANC-1) | CC50 (HT-29) | LC50 (LoVo) | LC50 (concentration for 50% cell killing) (LoVo-Dox) | CC50 (HeLa) | CC50 (HeLa-APL)
8.42 µM: GI50 (LNCaP)
14 µM: GI50 (PANC-1)
10.7 µM: GI50 (DU-145)
16.3 µM: GI50 (SK-MEL-28)
11.1 µM: GI50 (SK-BR-3)
17.1 µM: GI50 (HT-29)
2.05E−05 Molar: TGI (SK-BR-3)
7.75 µM: GI50 (K-562)
10.4 µM: GI50 (LoVo)
13.8 µM: GI50 (IGROV-ET)
85.1 µM: GI50 (LoVo-Dox)
14.1 µM: GI50 (IGROV)
12.9 µM: GI50 (HeLa-APL; 48 h)
13.3 µM: GI50 (HeLa)
20.5 µM: IC (total growth inhibition) (DU-145) | IC (total growth inhibition) (LNCaP) | IC (total growth inhibition) (IGROV) | IC (total growth inhibition) (IGROV-ET) | IC (total growth inhibition) (SK-MEL-28) | IC (total growth inhibition) (A-549) | IC (total growth inhibition) (K-562) | IC (total growth inhibition) (PANC-1) | IC (total growth inhibition) (HT-29) | IC (total growth inhibition) (LoVo) | IC (total growth inhibition) (LoVo-Dox) | IC (total growth inhibition) (HeLa)
